Data: patent publication US9278093B2, “Aldosterone synthase inhibitors” (Merck Sharp & Dohme Corp., priority 2012, dated 2016)

Assays:
human CYP11B1 = human CYP11B1 (Homo sapiens (Human), UniProt P15538); assay: V79-Human-CYP11B1 Assay; type: cell-based; conditions: V79MZh11B1 cells, substrate deoxycorticosterone 100 nM, 25 min incubation
Method: (§1) V79MZh11B1 and V79MZh11B2 cells (8×10^5 cells/well) were grown on 24-well culture plates until confluence. Before testing, the DMEM culture medium was removed and 450 μl of fresh DMEM containing the inhibitor was added to each well. After a preincubation step of 60 min at 37° C., the reaction was started by the addition of 50 μl of DMEM in which the substrate deoxycorticosterone (containing 0.15 μCi of [1,2-3H]-deoxycorticosterone in ethanol, final test concentration 100 nM) was dissolved. Incubation times were 25 min for V79MZh11B1 and 50 min for V79MZh11B2 cells at 37° C., respectively. The enzyme reactions were stopped by extracting the supernatant with ethyl acetate. Samples were centrifuged (10.000 g, 5 min) and the solvent was pipetted into fresh cups. After evaporation of the solvent, the steroids were redissolved in 40 μl of […] and analyzed by HPLC. Detection and quantification of the steroids were performed using a radioflow detector. To first estimate the different IC50 values, five different concentrations ranging from 1 to 10.000 nM were measured. For the following IC50 determination, three different concentrations (repeat-determinations) were measured for each […] value of each inhibitor in which the second concentration led to an inhibition of approximately 40 to 60%. […] The final IC50 value was estimated as the average of three or four independent IC50 values and a selectivity factor corresponding to the ratio between the […] values of CYP11B1 and CYP11B2 was calculated for each substance.

human CYP11B2 = human CYP11B2 (Homo sapiens (Human), UniProt P19099); assay: V79-Human-CYP11B2 Assay; type: cell-based; conditions: V79MZh11B2 cells, substrate deoxycorticosterone 100 nM, 50 min incubation
Sequence of human CYP11B2 (P19099 25-503): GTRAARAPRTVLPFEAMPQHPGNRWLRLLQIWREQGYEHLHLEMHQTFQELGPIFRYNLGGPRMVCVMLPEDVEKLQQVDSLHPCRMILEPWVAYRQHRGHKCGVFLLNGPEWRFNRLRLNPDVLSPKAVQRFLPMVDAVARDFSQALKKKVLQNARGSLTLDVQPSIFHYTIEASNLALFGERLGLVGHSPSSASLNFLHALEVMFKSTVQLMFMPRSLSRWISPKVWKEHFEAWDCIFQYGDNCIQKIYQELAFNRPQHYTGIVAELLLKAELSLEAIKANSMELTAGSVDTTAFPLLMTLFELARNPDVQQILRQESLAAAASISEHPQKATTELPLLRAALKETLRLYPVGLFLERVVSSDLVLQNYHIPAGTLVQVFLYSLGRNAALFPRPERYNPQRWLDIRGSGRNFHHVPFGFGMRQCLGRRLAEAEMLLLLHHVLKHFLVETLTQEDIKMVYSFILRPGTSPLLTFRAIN
Method: as §1

Sequence of human CYP11B1 (P15538 25-503): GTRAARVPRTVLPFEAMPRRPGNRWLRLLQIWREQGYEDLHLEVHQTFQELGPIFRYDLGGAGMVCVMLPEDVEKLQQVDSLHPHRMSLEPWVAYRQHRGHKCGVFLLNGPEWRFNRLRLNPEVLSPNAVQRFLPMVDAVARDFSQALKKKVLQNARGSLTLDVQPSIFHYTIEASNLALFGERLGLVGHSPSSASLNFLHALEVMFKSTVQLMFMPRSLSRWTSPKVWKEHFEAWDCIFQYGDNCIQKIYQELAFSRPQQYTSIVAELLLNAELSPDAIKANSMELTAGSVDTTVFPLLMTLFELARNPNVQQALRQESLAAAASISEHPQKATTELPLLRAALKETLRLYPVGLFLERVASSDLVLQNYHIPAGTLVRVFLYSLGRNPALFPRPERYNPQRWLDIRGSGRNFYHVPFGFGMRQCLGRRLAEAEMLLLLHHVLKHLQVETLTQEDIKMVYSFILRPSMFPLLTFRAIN

SMILES: Cc1nnc2n1-c1c(F)cc(-c3cncc(F)c3C3CC3)cc1CC2 [Example 1, 7-(4-cyclopropyl-5-fluoropyridin-3-yl)-9-fluoro-1-methyl-4,5-dihydro-[1,2,4]triazolo[4,3-a]quinoline]
- IC50 (human CYP11B1): 2290 nM
- IC50 (human CYP11B2): 7.3 nM

SMILES: Cc1c(F)cncc1-c1cc(F)c2c(c1)CCc1nnc(C)n1-2 [Example 2, 9-fluoro-7-(5-fluoro-4-methylpyridin-3-yl)-1-methyl-4,5-dihydro-[1,2,4]triazolo[4,3-a]quinoline]
- IC50 (human CYP11B1): 1420 nM
- IC50 (human CYP11B2): 6 nM

SMILES: Cc1nnc2n1-c1c(F)cc(-c3cncc(F)c3C(C)C)cc1CC2 [Example 3, 9-fluoro-7-(5-fluoro-4-isopropylpyridin-3-yl)-1-methyl-4,5-dihydro-[1,2,4]triazolo[4,3-a]quinoline]
- IC50 (human CYP11B1): 3970 nM
- IC50 (human CYP11B2): 9.5 nM

SMILES: Cc1nnc2n1-c1c(F)cc(-c3cncc(F)c3Cl)cc1CC2 [Example 4, 7-(4-chloro-5-fluoropyridin-3-yl)-9-fluoro-1-methyl-4,5-dihydro-[1,2,4]triazolo[4,3-a]quinoline]
- IC50 (human CYP11B1): 9800 nM
- IC50 (human CYP11B2): 21.6 nM
